Source: patent US12398141B2 (SHANGHAI SYNERGY PHARMACEUTICAL SCIENCES CO., LTD, priority 2019, dated 2025)

What was measured:
Blast T cell = assay: Cell proliferation test of IL-2 stimulated Blast T cell; type: cell-based; settings: Homo sapiens; IL-2 stimulated Blast T cell proliferation, 72 hours
TF-1 cell = TF-1 cell proliferation test; type: cell-based; settings: Homo sapiens, 72 h
Sprague-Dawley (SD) mice = assay: Concanavalin-induced paw swelling in mice; type: in vivo; settings: 10 mg/kg intragastric
Method in brief: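 SD […], 6-7 weeks, 160-180 g, dosed intragastrically with compound in 4% Tween 80/0.5% HPMC. 0.5 h later, 0.1 ml 0.03% concanavalin injected subcutaneously into the plantar. Paw volume measured before modeling and at 1, 2, 4 and 6 h; swelling rate expressed as percent change from pre-dose volume.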

[1] = Pharmacokinetic test after intragastric administration; type: in vivo; settings: Sprague-Dawley, mouse, plasma, po, SD mice, 5 mg/kg intragastric
Procedure: Drug concentrations of compounds H01, H07, H11, H12, H14, H15, H22, H25, H29, H30, H33, H39 and H44 intragastrically administrated in plasma by using LC/MS/MS method at various time points were determined by using Sprague-Dawley (SD) […], aged 7-8 weeks and weighing […] as test animals. Pharmacokinetic behavior of the compounds of the invention in […] was studied and its pharmacokinetic characteristics were evaluated.
A certain amount of compounds was taken and dissolved in 50% PEG400/water to prepare a uniform solution.
Mice were administered intragastrically with the above compounds with a dosage of 5 mg/kg. Blood (0.2 ml) was taken from orbits before administration and 0.083 h, 0.25 h, 0.5 h, 1.0 h, 2.0 h, 4.0 h, 6.0 h, 8.0 h, 12.0 h and 24.0 h after administration. The blood was placed in anticoagulant tubes containing dipotassium ethylene glycol diethyl ether diamine tetraacetic acid, centrifugated at 6000 rpm at 4° C. for 10 minutes to separate plasma and saved at −80° C.
50 μL plasma at various time was taken and 150 μL acetonitrile solution containing internal standard tolbutamide (Sigma, USA) was added, mixed and stirred for 5 minutes. After centrifugation for 5 minutes at 12,000 rpm, 100 μL supernatant was taken, mixed with 200 μL water, following by sample injection and analysis.
Liquid chromatogram system was LC-20AD UFLC High Performance Liquid Chromatography system. Mass spectrum system was AB Sciex API4000 triple quadrupole mass spectrometer equipped with Electron Spray Ionization (ESI) (Applied Biosystems, Canada). A software for controlling liquid chromatography-mass spectrometry and quantitative analysis was Anna Rust 1.6 (Applied Biosystems, Canada). Pharmacokinetic parameters were analyzed by WinNonlin (version 5.2, Pharsight, Mountain View, […]) non-compartment model.
The test compound was dissolved in dimethyl sulfoxide to prepare a stock solution with a concentration of 1 mg/mL. The solution was diluted with 50% acetonitrile to obtain a series of standard working solutions with concentrations of 10 μg/mL, 3 μg/mL, 1 μg/mL, 0.3 μg/mL, 0.1 μg/mL, 0.03 μg/mL and 0.01 μg/mL, and a series of standard quality control solutions with concentrations of 8 μg/mL, 0.5 μg/mL, 0.03 μg/mL. 5 μL standard solution was mixed with 45 μL blank plasma substrate uniformly to obtain standard solutions of each concentration of a standard curve (1000 ng/mL, 500 ng/mL, 200 ng/mL, 100 ng/mL, 10 ng/mL, 5 ng/mL, 2 and 1 ng/mL) and quality control solutions (plasma samples: 800 ng/mL, 50 and 3 ng/mL).
Internal standard tolbutamide solid powder was dissolved in dimethyl sulfoxide to prepare a 1 mg/mL stock solution. The stock solution was diluted with 100% acetonitrile to obtain 200 ng/mL solution as a protein precipitation solution.

N#Cc1cnc2[nH]ccc2c1N1CC2CN(C(=O)NCC(F)(F)F)CC21 (stereo not drawn) [Compound H39, 6-(5-cyano-1H-pyrrolo[2,3-b]pyridin-4-yl)-N-(2,2,2-trifluoroethyl)-3,6-diazabicyclo[3.2.0]heptane-3-carboxamide]
IC50 (Blast T cell): 0.015 µM
IC50 (TF-1 cell): 0.69 µM
Paw swelling rate_1 h (%) (Sprague-Dawley (SD) mice; 1 h): 31.10 ± 2.30%
Paw swelling rate_2 h (%) (Sprague-Dawley (SD) mice; 2 h): 25.60 ± 4.00%
Paw swelling rate_4 h (%) (Sprague-Dawley (SD) mice; 4 h): 26.30 ± 3.30%
Paw swelling rate_6 h (%) (Sprague-Dawley (SD) mice; 6 h): 25.30 ± 3.30%
AUC(0-t) ([1]; read-out: Area under the curve (AUC0-24, ng/ml · h)): 1560 ± 230 ng·h/mL
Cmax ([1]; read-out: Plasma concentration (Cmax, ng/ml)): 574 ± 64 ng/mL
half-life ([1]; read-out: half life (T1/2, h) (converted)): 4.65 ± 0.15 h
